Our source for the IC50 and Ki values is ChEMBL document CHEMBL1909046, “DrugMatrix in vitro pharmacology data”.

pIC50: −log10 of the molar value.

The target of assay [1] is Prostaglandin G/H synthase 1 (Homo sapiens, UniProt P23219). Kind of assay: biochemical. The note with it: for IC50: platelet. Format: tissue-based, Platelet.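 For all read-outs here: inhibition of COX-1 enzyme activity, with arachidonic acid supplied as substrate; in other assays of this panel Not Active means under 50% inhibition at 10 µM.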
Assay [2] can be described thus: DRUGMATRIX: Glutamate, Kainate radioligand binding (ligand: [3H] Kainic acid). Format: cell membranes, Rattus norvegicus, Wistar, Brain, Membrane. The conditions noted are these: Not Active = under 50% inhibition at 10 µM.
For assay [3], the target named is T1, 3-hydroxy-3-methylglutaryl-coenzyme A reductase (Homo sapiens, UniProt P04035).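 Note: enzyme inhibition assay of HMG-CoA reductase using radiolabeled [14C]HMG-CoA as substrate; in other assays of this panel Not Active means under 50% inhibition at 10 µM.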
T1 sequence (P04035 whole entry): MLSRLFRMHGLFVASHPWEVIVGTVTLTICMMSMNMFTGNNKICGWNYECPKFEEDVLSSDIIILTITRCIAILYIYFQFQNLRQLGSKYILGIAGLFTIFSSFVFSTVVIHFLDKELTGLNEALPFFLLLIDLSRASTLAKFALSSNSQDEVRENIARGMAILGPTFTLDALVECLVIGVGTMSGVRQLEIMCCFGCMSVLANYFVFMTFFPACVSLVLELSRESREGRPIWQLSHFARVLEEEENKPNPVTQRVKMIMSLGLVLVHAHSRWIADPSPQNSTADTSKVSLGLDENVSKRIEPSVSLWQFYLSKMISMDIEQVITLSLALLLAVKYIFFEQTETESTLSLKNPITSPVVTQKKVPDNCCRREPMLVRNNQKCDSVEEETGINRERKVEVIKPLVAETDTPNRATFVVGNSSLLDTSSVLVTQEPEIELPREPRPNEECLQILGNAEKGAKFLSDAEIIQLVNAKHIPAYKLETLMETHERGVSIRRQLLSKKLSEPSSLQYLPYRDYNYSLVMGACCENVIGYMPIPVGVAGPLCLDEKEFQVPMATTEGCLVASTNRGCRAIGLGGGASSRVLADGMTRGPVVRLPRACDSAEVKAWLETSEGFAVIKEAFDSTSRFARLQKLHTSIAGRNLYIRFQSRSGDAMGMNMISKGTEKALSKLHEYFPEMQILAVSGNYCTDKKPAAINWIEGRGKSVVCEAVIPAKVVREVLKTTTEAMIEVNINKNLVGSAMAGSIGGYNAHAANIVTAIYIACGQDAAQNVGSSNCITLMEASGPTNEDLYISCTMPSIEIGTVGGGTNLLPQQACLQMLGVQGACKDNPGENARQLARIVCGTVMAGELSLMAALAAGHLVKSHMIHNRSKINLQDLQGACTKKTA
Details: species or system Escherichia coli.

Assay [4] in a line: DRUGMATRIX: Interleukin IL-1 radioligand binding (ligand: [125I] interleukin 1beta). The note with it: nih3t3; Not Active = under 50% inhibition at 10 µM. In kind it is cell membranes, Membrane.
Assay [5] in a line: DRUGMATRIX: Nicotinic Acetylcholine radioligand binding (ligand: [125I] Epibatidine). The conditions noted are these: imr-32; Not Active = under 50% inhibition at 10 µM. Format: cell membranes, Membrane.
Assay [6] deals with T2, Nitric oxide synthase, inducible (Mus musculus, UniProt P29477).
T2 sequence (P29477 whole entry): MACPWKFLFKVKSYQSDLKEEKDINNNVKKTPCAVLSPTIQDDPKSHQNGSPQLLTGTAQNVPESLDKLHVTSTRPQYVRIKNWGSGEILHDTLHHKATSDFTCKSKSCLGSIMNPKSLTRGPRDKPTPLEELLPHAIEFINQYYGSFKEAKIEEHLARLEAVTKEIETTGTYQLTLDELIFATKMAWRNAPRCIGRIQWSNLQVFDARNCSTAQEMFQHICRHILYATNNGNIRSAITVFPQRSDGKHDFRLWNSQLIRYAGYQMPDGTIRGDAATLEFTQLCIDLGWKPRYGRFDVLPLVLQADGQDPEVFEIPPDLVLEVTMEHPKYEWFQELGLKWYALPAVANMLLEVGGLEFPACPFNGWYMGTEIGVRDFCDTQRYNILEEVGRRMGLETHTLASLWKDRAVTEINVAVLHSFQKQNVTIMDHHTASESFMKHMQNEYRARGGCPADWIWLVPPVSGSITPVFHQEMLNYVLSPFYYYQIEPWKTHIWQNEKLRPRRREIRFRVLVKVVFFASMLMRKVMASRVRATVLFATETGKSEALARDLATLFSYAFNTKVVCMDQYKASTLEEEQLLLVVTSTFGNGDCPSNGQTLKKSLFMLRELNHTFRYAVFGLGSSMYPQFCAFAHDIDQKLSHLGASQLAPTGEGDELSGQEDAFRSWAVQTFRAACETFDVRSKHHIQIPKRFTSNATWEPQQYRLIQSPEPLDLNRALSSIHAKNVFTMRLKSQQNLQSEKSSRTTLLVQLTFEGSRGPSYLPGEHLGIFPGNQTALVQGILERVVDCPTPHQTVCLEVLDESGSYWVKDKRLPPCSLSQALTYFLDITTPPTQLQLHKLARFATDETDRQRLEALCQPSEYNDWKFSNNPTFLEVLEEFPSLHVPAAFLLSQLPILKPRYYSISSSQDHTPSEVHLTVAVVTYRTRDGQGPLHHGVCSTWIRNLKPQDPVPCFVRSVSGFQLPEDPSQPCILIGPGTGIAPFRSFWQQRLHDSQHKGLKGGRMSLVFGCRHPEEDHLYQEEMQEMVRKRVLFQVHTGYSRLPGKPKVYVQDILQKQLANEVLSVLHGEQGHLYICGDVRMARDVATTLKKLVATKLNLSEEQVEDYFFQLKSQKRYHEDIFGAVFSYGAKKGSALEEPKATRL
Also on record: species or system Escherichia coli.

The target of assay [7] is Mu-type opioid receptor (Homo sapiens, UniProt P35372). As to the kind of experiment: DRUGMATRIX: Opiate mu (OP3, MOP) radioligand binding (ligand: [3H] Diprenorphine). In kind it is cell membranes, CHO-K1, Membrane. The conditions noted are these: cho-k1; Not Active = under 50% inhibition at 10 µM.
Assay [8] addresses cGMP-specific 3',5'-cyclic phosphodiesterase (Homo sapiens, UniProt O76074). As to the kind of experiment: DRUGMATRIX: Phosphodiesterase PDE5 enzyme inhibition (substrate: [3H]cGMP + cGMP). Format: tissue-based. The conditions noted are these: platelet; Not Active = under 50% inhibition at 10 µM.
The nature of assay [9]: DRUGMATRIX: Platelet-Derived Growth Factor (PDGF) radioligand binding (ligand: [125I] PDGF). In kind it is cell-based. The conditions noted are these: nih3t3; Not Active = under 50% inhibition at 10 µM.

Prostaglandin G/H synthase 1, sequence (P23219 whole entry): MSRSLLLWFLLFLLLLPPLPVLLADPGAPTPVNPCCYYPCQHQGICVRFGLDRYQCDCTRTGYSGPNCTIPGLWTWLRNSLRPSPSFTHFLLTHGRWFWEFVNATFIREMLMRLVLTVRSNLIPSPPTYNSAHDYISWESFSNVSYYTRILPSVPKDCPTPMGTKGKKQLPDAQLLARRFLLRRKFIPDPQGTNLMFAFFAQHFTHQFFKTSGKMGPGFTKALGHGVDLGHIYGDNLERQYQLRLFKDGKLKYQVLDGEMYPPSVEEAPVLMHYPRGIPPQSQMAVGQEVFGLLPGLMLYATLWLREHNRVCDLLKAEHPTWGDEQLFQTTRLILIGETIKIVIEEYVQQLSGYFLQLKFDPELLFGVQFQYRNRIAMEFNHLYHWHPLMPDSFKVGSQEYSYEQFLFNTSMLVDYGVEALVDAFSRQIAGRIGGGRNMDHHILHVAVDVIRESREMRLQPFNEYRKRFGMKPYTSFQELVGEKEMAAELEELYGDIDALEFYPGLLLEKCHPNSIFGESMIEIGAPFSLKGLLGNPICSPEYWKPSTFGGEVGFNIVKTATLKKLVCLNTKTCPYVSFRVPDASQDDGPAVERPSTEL
Mu-type opioid receptor, sequence (P35372 whole entry): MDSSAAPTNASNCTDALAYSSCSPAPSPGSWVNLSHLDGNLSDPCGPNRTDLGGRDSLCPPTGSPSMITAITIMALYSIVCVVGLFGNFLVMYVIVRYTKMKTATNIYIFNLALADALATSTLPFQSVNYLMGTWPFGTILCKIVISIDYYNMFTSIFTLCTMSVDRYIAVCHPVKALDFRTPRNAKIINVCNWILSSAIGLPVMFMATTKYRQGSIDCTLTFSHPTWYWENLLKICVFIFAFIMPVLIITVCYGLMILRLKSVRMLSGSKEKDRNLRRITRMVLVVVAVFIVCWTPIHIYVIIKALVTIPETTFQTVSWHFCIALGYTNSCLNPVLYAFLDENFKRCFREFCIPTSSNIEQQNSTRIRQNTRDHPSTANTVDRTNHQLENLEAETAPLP

Take `CC1(C)O[C@@H]2C[C@H]3[C@@H]4CCC5=CC(=O)C=C[C@]5(C)[C@@]4(F)[C@@H](O)C[C@]3(C)[C@]2(C(=O)CO)O1` [TRIAMCINOLONE ACETONIDE]: the IC50 result in assay [1], in [2], in assay [3], in [4], in assay [5] and in assay [6] was “Not Active” in each case. Also, the IC50 result in assay [7], in assay [8] and in assay [9] was “Not Active” in each case. Besides, the Ki result in [2], in [4], in assay [5] and in [9] was “Not Active” throughout.
As to `Cc1cccc(N(C)C(=S)Oc2ccc3ccccc3c2)c1` [TOLNAFTATE], the IC50 entry in [1], in [2], in assay [3], in assay [4], in assay [5] and in [6] was “Not Active” in each case. Further, the IC50 result in assay [7], in [8] and in [9] was “Not Active” each time. The Ki entry in assay [2], in [4], in [5] and in [9] was “Not Active” in each case.
On to `C[C@@H]1CN(c2c(F)c(N)c3c(=O)c(C(=O)O)cn(C4CC4)c3c2F)C[C@H](C)N1` [SPARFLOXACIN], for which the IC50 result in assay [1], in assay [2], in assay [3], in assay [4], in assay [5] and in assay [6] was “Not Active” in each case. Further, the IC50 entry in [7], in [8] and in assay [9] was “Not Active” throughout. Also, the Ki result in [2], in assay [4], in assay [5] and in [9] was “Not Active” in each case.
For the compound `Cn1ccnc1S` [METHIMAZOLE], the IC50 result in assay [1], in assay [2], in assay [3], in [4], in assay [5] and in assay [6] was “Not Active” each time. Further, the IC50 result in assay [7], in [8] and in [9] was “Not Active” each time. Further, the Ki entry in assay [2], in assay [4], in [5] and in assay [9] was “Not Active” each time.
Consider `C=CCC1(C(C)CCC)C(=O)NC(=O)NC1=O` (stereo not given) [SECOBARBITAL], for which the IC50 result in [1], in [2], in assay [3], in assay [4], in assay [5] and in assay [6] was “Not Active” in each case. Further, the IC50 result in assay [7], in assay [8] and in [9] was “Not Active” each time. The Ki entry in assay [2], in [4], in assay [5] and in assay [9] was “Not Active” throughout.
As to `Nc1nc2ccc(OC(F)(F)F)cc2s1` [RILUZOLE], the IC50 result in assay [1], in assay [2], in assay [3], in assay [4], in assay [5] and in [6] was “Not Active” in each case. For the same compound, the IC50 result in [7], in assay [8] and in assay [9] was “Not Active” throughout. The Ki entry in [2], in assay [4], in [5] and in assay [9] was “Not Active” each time.
Take `N[C@@H]1[C@H]2CN(c3nc4c(cc3F)c(=O)c(C(=O)O)cn4-c3ccc(F)cc3F)C[C@@H]12` [TROVAFLOXACIN]: the IC50 result in assay [1], in [2], in [3], in assay [4], in assay [5] and in assay [6] was “Not Active” in each case. Besides, the IC50 result in assay [7], in assay [8] and in [9] was “Not Active” each time. Besides, the Ki result in assay [2], in [4], in assay [5] and in assay [9] was “Not Active” each time.
`COc1c(C)c2c(c(O)c1C/C=C(\C)CCC(=O)O)C(=O)OC2` [MYCOPHENOLIC ACID]: the IC50 result in assay [1], in assay [2], in [3], in assay [4], in [5] and in assay [6] was “Not Active” throughout. Besides, the IC50 entry in assay [7], in [8] and in assay [9] was “Not Active” in each case. The Ki result in [2], in assay [4], in [5] and in assay [9] was “Not Active” in each case.
In general, pIC50 refers to −log10 of the IC50, conventionally taken in molar units. Consider `Nc1nc2nc[nH]c2c(=S)[nH]1` [THIOGUANINE], for which the pIC50 in assay [1] (read-out: IC50) was 6.22. Further, the IC50 entry in assay [2], in assay [3], in [4], in assay [5], in assay [6] and in assay [7] was “Not Active” in each case. The IC50 entry in [8] and in [9] was “Not Active” in each case. The Ki result in assay [2], in assay [4], in [5] and in assay [9] was “Not Active” throughout.
On to `Cc1c(C)c2c(c(C)c1O)CCC(C)(COc1ccc(CC3SC(=O)NC3=O)cc1)O2` (stereo not given) [TROGLITAZONE], for which the IC50 entry in assay [1], in assay [2], in assay [3], in [4], in [5] and in assay [6] was “Not Active” in each case. For the same compound, the IC50 entry in assay [7], in [8] and in [9] was “Not Active” each time. Further, the Ki entry in assay [2], in [4], in assay [5] and in [9] was “Not Active” throughout.
